In US20050143356A1, “Selective inhibition of cyclooxygenase 1 in the treatment of diabetic nephropathy” (Vanderbilt University, priority 2003, published 2005):

What was measured:
[1] = system: C57BLKS db/db mice; assay: Body weight gain, blood sugar and glycosylated hemoglobin in diabetic db/db mice; settings: diabetic db/db mice vs. vehicle treated controls, 6 months
Description: (§1) The C57BLKS db/db mice is a rodent model of type II diabetes mellitus. A LepR^db (db) mutation on chromosome 4 (G→T point mutation) has been identified in the leptin receptor gene. This mutation generates a new donor splice site, leading to prematurely termination of the intracellular domain of leptin receptor and lack of leptin signal transduction. C57BLKS db/db strain is more susceptible to the development of diabetic nephropathy than the C57BL/6J db/db strain. Animals are characterized by obesity, insulin resistance, diabetes and diabetic nephropathy (DN). […] Pathologic changes include mesangial matrix expansion (>50% increase in the majority of glomeruli) and GBM thickening >25%, absence of GBM electron dense material by EM, arteriolar hyalinosis (any degree) and tubulo-interstitial fibrosis.
Inhibitor was given for 6 months, while the control diabetic mice were given vehicle alone (n=8 per group). Blood samples were drawn for analysis of glucose and glycosylated hemoglobin (HbA1c) monthly. The urine samples were collected monthly and albumin/creatinine ratio was determined by enzyme linked immunosorbent assays (Exocell Inc, PA, USA). Glomerular filtration rate (GFR) was determined using FITC-inulin clearance based on plasma elimination rate following single bolus intravenous injection.
(§2) Cyclooxygenase-1 (COX-1) is also abundantly expressed in the kidney, however its role in health and disease remains poorly defined. […] Diabetic mice were provide the COX-1 inhibitor for 6 months, while control diabetic mice given vehicle alone. […] Glomerular filtration rate was also determined using FITC-inulin clearance.

[2] = system: C57BLKS db/db mice; assay: Kidney histopathology (mesangial expansion) in diabetic db/db mice; assay type: in vivo, mouse; settings: treated vs. untreated (severe mesangial expansion in untreated)
Description: as §1, §2

`COc1ccc(-n2nc(C(F)(F)F)cc2-c2ccc(Cl)cc2)cc1` [SC8560] was tested, and the “effect on Hb1C” value [1] was “did not affect”, the “effect on blood sugar” value [1] was “did not affect” and the “effect on body weight gain” value [1] was “did not affect”. For the same compound, the “mesangial expansion (histopathology)” value [2] was “less pronounced”.
